Where two headings read alike, the source gives them in different places. No end group written: not given here.
Target: T1, GPR103 T215^5.39A (Homo sapiens, UniProt Q96P65, T215A)
T1 construct: we used human full-length QRFPR-encoding plasmids; expressed in transfected cells; host or cells: HEK293 cells (HEK293A in the flow cytometry section), pCAGGS vector
T1 sequence (Q96P65 1-431 T215A): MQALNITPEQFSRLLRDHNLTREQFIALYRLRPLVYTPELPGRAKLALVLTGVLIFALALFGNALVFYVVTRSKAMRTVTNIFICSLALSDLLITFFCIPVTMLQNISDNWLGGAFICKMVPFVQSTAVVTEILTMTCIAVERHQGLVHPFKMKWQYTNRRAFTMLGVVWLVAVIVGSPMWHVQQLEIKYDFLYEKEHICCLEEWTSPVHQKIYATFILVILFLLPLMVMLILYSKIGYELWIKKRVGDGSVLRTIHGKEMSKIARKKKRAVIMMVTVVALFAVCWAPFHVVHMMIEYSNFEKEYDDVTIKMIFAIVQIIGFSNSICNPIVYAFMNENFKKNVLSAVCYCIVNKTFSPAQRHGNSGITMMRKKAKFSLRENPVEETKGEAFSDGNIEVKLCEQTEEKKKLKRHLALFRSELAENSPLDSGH
Test: TGFα shedding assay; Exp. level WT (1:1)
Format: cell-based
Method: For the TGFα shedding assay and the flow cytometry analysis, we used human full-length QRFPR-encoding plasmids. Specifically, GPR103 was N-terminally modified with an HA signal sequence followed by a FLAG epitope and then a flexible linker ([…]; the FLAG epitope is underlined) and inserted into the pCAGGS vector. Plasmid encoding GPR103 mutants were generated using Quickchange Site-Directed Mutagensis kit (Agilent).
The TGFα shedding assay was performed as described previously with minor modifications. Plasmid transfection was performed in a 6-well plate with a mixture of 500 ng (per well in a 6-well plate) AP-TGFα-encoding plasmid and 200 ng GPR103-encoding plasmid. After 1-day culture, the transfected cells were harvested by trypsinization, pelleted by centrifugation at 190 × g for 5 min, and washed once with 5 mM HEPES (pH 7.4)-containing Hank’s Balanced Salt Solution (HBSS). After centrifugation, the cells were resuspended in 8 mL of the HEPES-containing HBSS. The cell suspension was seeded in a 96-well culture plate (cell plate) at a volume of 90 μL (per well hereafter) and incubated in a 37 °C incubator with 5% CO2 for 30 min. […] After spinning the cell plates at 190 × g for 2 min, 80 μL of conditioned media was transferred to an empty 96-well plate (conditioned media (CM) plate). Then, 80 μL of AP reaction solution (10 mM p-nitrophenylphosphate (p-NPP), 120 mM Tris-HCl (pH 9.5), 40 mM NaCl, and 10 mM MgCl2) was dispensed into the cell plates and the CM plates. Absorbance at 405 nm of the plates was measured using a microplate reader (SpectraMax 340 PC384, Molecular Devices) before and after 1-h incubation at room temperature. Ligand-induced AP-TGFα release was calculated by subtracting spontaneous AP-TGFα release signal from ligand-induced AP-TGFα release signal. The AP-TGFα release signals were fitted to a four-parameter sigmoidal concentration–response curve, using the Prism 10 software (GraphPad Prism). For each replicate experiment, the pEC50 parameter (negative logarithmic values of EC50 values) of the individual GPR103 mutants were normalized to that of the wild-type GPR103 performed in parallel, and resulting ∆pEC50 values were used to denote ligand response activity of the mutants. […]
Exp. le vel: WT (1:5 0)Exp. le vel: WT (1:5 0)Exp. le vel: WT (1:5 0)Exp. le vel: WT (1:2 0)Exp. le vel: WT (1:2 0)Exp. le vel: WT (1:1 0) […]
L1 4N - t e r mA F2 5N - t e r mA I 2 6N - t e r mA Y 2 9N - t e r mA C 9 82 .5 7A T10 22 .6 1A Exp . l eve l: WT (1 :5)Exp . l evel : >WT (1 :1)Exp. le vel: WT (1:2 0)Exp. le vel: WT (1:2 0)Exp. le vel: WT (1:5 0)Exp . l eve l: WT (1 :1) […]
Exp. le vel: WT (1:1 0)Exp. le vel: WT (1:2 0) C 1 1 83 .2 5AExp. le vel: WT (1:5 0)Exp. le vel: WT (1:5 0)Exp. le vel: WT (1:2 0)Exp . l eve l: WT (1 :5) […]
Exp. le vel: WT (1:5 0)Exp. le vel: WT (1:1 0)Exp. le vel: WT (1:5 0) E203ECL2AExp . l evel : >WT (1 :1)Exp. le vel: WT (1:5 0)Exp. le vel: WT (1:5 0) […]
Exp . l eve l: WT (1 :1) F28Exp. le vel: WT (1:5 0) C 2 8 56 .4 7AExp. le vel: WT (1:2 0) WExp. le vel: WT (1:2 0) F28Exp. le vel: WT (1:5 0)Exp . l evel : >WT (1 :1) […]
Exp. le vel: WT (1:5 0)Exp. le vel: WT (1:5 0) C 3 2 77 .4 8AExp . l eve l: WT (1 :5)Exp . l evel : >WT (1 :1)Exp . l evel : >WT (1 :1) […]
Suppl eme nt ary Figure 1 | Mutational analysis of GPR103. […]
mutants. Data are presented as mean values ± SEM, normally n=3-5; dots), each performed in triplicate. b-d Cell-surface expression (b) and QRFP26-in-duced activation of GPR103 (c, d) were analyzed by the flow cytometry and the TGFα shedding assay, respectively. From the concentration–response curves (a), Emax (c) and ΔpEC50 (d) values relative to the wild type were calculated. Colors in the mutant bars indicate an expression level matching to that of titrated wild type. Statistical analyses were performed using the ordinary one-way ANOVA followed by Dunnett tests with the expression-matched […]

TSGPLGNLAEELNGYSRKKGGFSFRF-NH2 [QRFP26] gave an Emax (Exp. #1) of 95.52 % WT, an Emax (Exp. #2) of 99.37 % WT and an Emax (Exp. #3) of 104.64 % WT. The Emax (mean, read-out: Emax) was 99.8%, the EC50 (n = 3) was 6.46 nM and the Emax (n = 3, read-out: Emax) was 103 ± 2.2%.

From publication PMC11187126, “Structure and dynamics of the pyroglutamylated RF-amide peptide QRFP receptor GPR103” (Nature Communications, 2024)
